# According to patent US20150328250A1, “Animal Food Composition and Method” (HILL'S PET NUTRITION, INC., priority 2012, published 2015):
# Assays:
# [1] = Chitosan-controlled release of zinc through dialysis tubing, dialysate zinc measured by ICP-OES; assay type: physicochemical
# Protocol: (§1) The chitosan-controlled release of zinc was investigated. 0.1% solutions of chitosan were prepared. Zinc acetate was added to each of these solutions to provide a zinc ion concentration of 100 ppm or 200 ppm. The pH of the solutions was adjusted to 2, 5 or 7. Each solution was left at room temperature for 72 hours while gently mixing to allow for complete chitosan dissolution. Solutions containing zinc alone acted as controls for the experiment.
# (§2) Each solution was subsequently transferred to dialysis tubing and placed in a jar containing deionized water. Stirring was carried out continuously throughout the duration of dialysis. Evaporative loss was minimized by placing a sealing wrap over the jar. A sample of the dialysate was removed at regular intervals and the zinc ion concentration was measured by inductively coupled plasma optical emission spectrometry (ICP-OES).
# [2] = Amount of zinc bound to chitosan after 1 hour of dialysis; assay type: physicochemical
# Protocol: as §1, §2
# The amount of zinc bound to chitosan after 1 hour of dialysis at pH 2, 5 and 7 was also determined After 1 hour of dialysis, the amount of zinc that had been released through the dialysis tubing, in the presence and absence of chitosan, was measured as described above. The amount of zinc released in the presence of chitosan was subtracted from the amount of zinc released in the absence of chitosan to determine the amount of zinc bound to chitosan.
compound,measurement,setting,value
"CC(=O)[O-].CC(=O)[O-].[Zn+2] [Zinc, Zinc acetate]",average rate of zinc release per hour,"[1]; 100 ppm Zn acetate, pH 2",0.54 mg/h
same,average rate of zinc release per hour,"[1]; 100 ppm Zn acetate, pH 5",1.38 mg/h
same,average rate of zinc release per hour,"[1]; 100 ppm Zn acetate, pH 7",0.85 mg/h
same,Amount of Zn++ released,"[1]; 100 ppm zinc ion, pH 2, 0.00 hrs",0 mg
same,Amount of Zn++ released,"[1]; 100 ppm zinc ion, pH 2, 0.33 hrs",0.25 ± 0.00 mg
same,Amount of Zn++ released,"[1]; 100 ppm zinc ion, pH 2, 0.67 hrs",0.42 ± 0.01 mg
same,Amount of Zn++ released,"[1]; 100 ppm zinc ion, pH 2, 1.00 hrs",0.52 ± 0.01 mg
same,Amount of Zn++ released,"[1]; 100 ppm zinc ion, pH 2, 1.33 hrs",0.75 ± 0.01 mg
same,Amount of Zn++ released,"[1]; 100 ppm zinc ion, pH 2, 1.67 hrs",0.90 ± 0.02 mg
same,Amount of Zn++ released,"[1]; 100 ppm zinc ion, pH 2, 2.00 hrs",1.01 ± 0.02 mg
same,Amount of Zn++ released,"[1]; 100 ppm zinc ion, pH 2, 2.50 hrs",1.40 ± 0.01 mg
same,Amount of Zn++ released,"[1]; 100 ppm zinc ion, pH 2, 3.00 hrs",1.66 ± 0.02 mg
same,Amount of Zn++ released,"[1]; 100 ppm zinc ion, pH 5, 0.00 hrs",0 mg
same,Amount of Zn++ released,"[1]; 100 ppm zinc ion, pH 5, 0.33 hrs",0.57 ± 0.01 mg
same,Amount of Zn++ released,"[1]; 100 ppm zinc ion, pH 5, 0.67 hrs",1.15 ± 0.02 mg
same,Amount of Zn++ released,"[1]; 100 ppm zinc ion, pH 5, 1.00 hrs",1.68 ± 0.02 mg
same,Amount of Zn++ released,"[1]; 100 ppm zinc ion, pH 5, 1.33 hrs",2.36 ± 0.07 mg
same,Amount of Zn++ released,"[1]; 100 ppm zinc ion, pH 5, 1.67 hrs",2.86 ± 0.07 mg
same,Amount of Zn++ released,"[1]; 100 ppm zinc ion, pH 5, 2.00 hrs",3.14 ± 0.01 mg
same,Amount of Zn++ released,"[1]; 100 ppm zinc ion, pH 5, 2.50 hrs",3.69 ± 0.05 mg
same,Amount of Zn++ released,"[1]; 100 ppm zinc ion, pH 5, 3.00 hrs",4.00 ± 0.00 mg
same,Amount of Zn++ released,"[1]; 100 ppm zinc ion, pH 7, 0.00 hrs",0 mg
same,Amount of Zn++ released,"[1]; 100 ppm zinc ion, pH 7, 0.33 hrs",0.30 ± 0.00 mg
same,Amount of Zn++ released,"[1]; 100 ppm zinc ion, pH 7, 0.67 hrs",0.71 ± 0.15 mg
same,Amount of Zn++ released,"[1]; 100 ppm zinc ion, pH 7, 1.00 hrs",0.82 ± 0.00 mg
same,Amount of Zn++ released,"[1]; 100 ppm zinc ion, pH 7, 1.33 hrs",1.11 ± 0.00 mg
same,Amount of Zn++ released,"[1]; 100 ppm zinc ion, pH 7, 1.67 hrs",1.40 ± 0.01 mg
same,Amount of Zn++ released,"[1]; 100 ppm zinc ion, pH 7, 2.00 hrs",1.78 ± 0.25 mg
same,average rate of zinc release per hour,"[1]; 200 ppm Zn acetate, pH 2",1.58 mg/h
same,average rate of zinc release per hour,"[1]; 200 ppm Zn acetate, pH 5",2.07 mg/h
same,average rate of zinc release per hour,"[1]; 200 ppm Zn acetate, pH 7",1.47 mg/h
same,Amount of Zn++ released,"[1]; 200 ppm zinc ion, pH 2, 0.00 hrs",0 mg
same,Amount of Zn++ released,"[1]; 200 ppm zinc ion, pH 2, 0.33 hrs",0.52 ± 0.00 mg
same,Amount of Zn++ released,"[1]; 200 ppm zinc ion, pH 2, 0.67 hrs",1.07 ± 0.00 mg
same,Amount of Zn++ released,"[1]; 200 ppm zinc ion, pH 2, 1.00 hrs",1.77 ± 0.07 mg
same,Amount of Zn++ released,"[1]; 200 ppm zinc ion, pH 2, 1.33 hrs",2.36 ± 0.01 mg
same,Amount of Zn++ released,"[1]; 200 ppm zinc ion, pH 2, 1.67 hrs",2.90 ± 0.01 mg
same,Amount of Zn++ released,"[1]; 200 ppm zinc ion, pH 2, 2.00 hrs",3.40 ± 0.05 mg
same,Amount of Zn++ released,"[1]; 200 ppm zinc ion, pH 2, 2.50 hrs",4.09 ± 0.01 mg
same,Amount of Zn++ released,"[1]; 200 ppm zinc ion, pH 2, 3.00 hrs",4.59 ± 0.00 mg
same,Amount of Zn++ released,"[1]; 200 ppm zinc ion, pH 5, 0.00 hrs",0 mg
same,Amount of Zn++ released,"[1]; 200 ppm zinc ion, pH 5, 0.33 hrs",0.99 ± 0.00 mg
same,Amount of Zn++ released,"[1]; 200 ppm zinc ion, pH 5, 0.67 hrs",1.91 ± 0.02 mg
same,Amount of Zn++ released,"[1]; 200 ppm zinc ion, pH 5, 1.00 hrs",2.73 ± 0.00 mg
same,Amount of Zn++ released,"[1]; 200 ppm zinc ion, pH 5, 1.33 hrs",3.61 ± 0.00 mg
same,Amount of Zn++ released,"[1]; 200 ppm zinc ion, pH 5, 1.67 hrs",4.25 ± 0.01 mg
same,Amount of Zn++ released,"[1]; 200 ppm zinc ion, pH 5, 2.00 hrs",4.85 ± 0.02 mg
same,Amount of Zn++ released,"[1]; 200 ppm zinc ion, pH 5, 2.50 hrs",5.59 ± 0.01 mg
same,Amount of Zn++ released,"[1]; 200 ppm zinc ion, pH 5, 3.00 hrs",6.13 ± 0.03 mg
same,Amount of Zn++ released,"[1]; 200 ppm zinc ion, pH 7, 0.00 hrs",0 mg
same,Amount of Zn++ released,"[1]; 200 ppm zinc ion, pH 7, 0.33 hrs",0.630 ± 0.00 mg
same,Amount of Zn++ released,"[1]; 200 ppm zinc ion, pH 7, 0.67 hrs",1.21 ± 0.01 mg
same,Amount of Zn++ released,"[1]; 200 ppm zinc ion, pH 7, 1.00 hrs",1.76 ± 0.01 mg
same,Amount of Zn++ released,"[1]; 200 ppm zinc ion, pH 7, 1.33 hrs",2.36 ± 0.02 mg
same,Amount of Zn++ released,"[1]; 200 ppm zinc ion, pH 7, 1.67 hrs",2.88 ± 0.02 mg
same,Amount of Zn++ released,"[1]; 200 ppm zinc ion, pH 7, 2.00 hrs",3.25 ± 0.04 mg
same,Zn++ released through the dialysis tubing,"[2]; 100 ppm pH 2, after 1 hour of dialysis",0.57 mg
same,Zn++ released through the dialysis tubing,"[2]; 100 ppm pH 5, after 1 hour of dialysis",1.62 mg
same,Zn++ released through the dialysis tubing,"[2]; 100 ppm pH 7, after 1 hour of dialysis",0.87 mg
same,Zn++ released through the dialysis tubing,"[2]; 200 ppm pH 2, after 1 hour of dialysis",1.68 mg
same,Zn++ released through the dialysis tubing,"[2]; 200 ppm pH 5, after 1 hour of dialysis",2.54 mg
same,Zn++ released through the dialysis tubing,"[2]; 200 ppm pH 7, after 1 hour of dialysis",1.68 mg
